The record followed here is patent US20240148821A1, “PHARMACEUTICAL USE OF CYCLIC PEPTIDE COMPOUND” (CHUGAI SEIYAKU KABUSHIKI KAISHA, priority 2021, published 2024).

Structures are written as SMILES. Numbered stars: 1 amine (or outer) side, 2 acyl side, 3 side chain; on linkers, the order of the positions; unused ones are H or OH. Bridge positions count the residues as written; N and C are the ends. Square brackets hold non-standard residues; d marks the D form. Peptide text beside a SMILES is read from it. * marks the point of attachment. hPhe(3,5-F2-4-CF3) = N[C@@H](CCc1cc(F)c(C(F)(F)F)c(F)c1)C(=O)O; hPhe(3-Cl-4-CF3) = N[C@@H](CCc1ccc(C(F)(F)F)c(Cl)c1)C(=O)O; hPhe(3-F,4-CF3) = N[C@@H](CCc1ccc(C(F)(F)F)c(F)c1)C(=O)O; NMePhe(4-CF3) = CN[C@@H](Cc1ccc(C(F)(F)F)cc1)C(=O)O; hPhe(4-CF3) = N[C@@H](CCc1ccc(C(F)(F)F)cc1)C(=O)O; NEtPhe(4-Me) = CCN[C@@H](Cc1ccc(C)cc1)C(=O)O; NMePhe(4-Cl) = CN[C@@H](Cc1ccc(Cl)cc1)C(=O)O; X29 = O=C([C@H](CCc1cc(Cl)ccc1F)N[*:1])[*:2]; NMePhe(4-Me) = CN[C@@H](Cc1ccc(C)cc1)C(=O)O; NMedβ3hAla = C[C@H](CC(=O)[*:2])N(C)[*:1]; NMeGly(cPent) = CN[C@H](C(=O)O)C1CCCC1; Phe(3-I) = N[C@@H](Cc1cccc(I)c1)C(=O)O; Pro(4,4-F2) = O=C(O)[C@@H]1CC(F)(F)CN1; X26 = CC(C)=CC[C@H](N[*:1])C(=O)[*:2]; NMeCha = CN[C@@H](CC1CCCCC1)C(=O)O; Hyp = O=C(O)[C@@H]1C[C@@H](O)CN1; NMeChg = CN[C@H](C(=O)O)C1CCCCC1; NMeF = CN[C@@H](Cc1ccccc1)C(=O)O; NMeD = CN[C@@H](CC(=O)O)C(=O)O; NMeL = CN[C@@H](CC(C)C)C(=O)O; NMeV = CN[C@H](C(=O)O)C(C)C; d(β3hA) = C[C@@H](N)CC(=O)O; NMeS = CN[C@@H](CO)C(=O)O; Pip = O=C(O)[C@@H]1CCCCN1; NMeA = CN[C@@H](C)C(=O)O; NMeAib = CNC(C)(C)C(=O)O; Piperidide = C1CCN(*)CC1; Ac5c = NC1(C(=O)O)CCCC1; Aze = O=C(O)[C@@H]1CCN1; Ac4c = NC1(C(=O)O)CCC1; NEtG = CCNCC(=O)O; Sar = CNCC(=O)O; Propyl = CCC*

This assay addresses protein-protein interaction between Kras and SOS1 (biotin-tagged human Kras loaded with GDP, His-tagged human SOS1) (Homo sapiens (Human), UniProt P01116, G12D). The experiment in a line: Protein-protein interaction inhibition between Kras and SOS1 (KrasG12D-SOS PPI) using AlphaScreen.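 Also: kras produced in E. coli, Ni-coupled donor beads and streptavidin acceptor beads, excitation 680 nm with emission detected at 520–620 nm via singlet oxygen transfer.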 The class given is biochemical. The following applies: AlphaScreen; biotin-tagged human Kras loaded with GDP, His-tagged human SOS1; read-out: KRAS G12D-SOS PPI IC50. For orientation: Alpha assays give light when donor and acceptor beads are brought close together.
Turning to `CC[C@H](C)[C@@H]1NC(=O)[C@H](CC(C)C)N(C)C(=O)C[C@@H](C(=O)N2CCCCC2)N(C)C(=O)[C@H](C2CCCCC2)N(C)C(=O)C2(CCCC2)NC(=O)CN(CC)C(=O)[C@H](CCc2ccc(C(F)(F)F)c(Cl)c2)NC(=O)CN(C)C(=O)[C@H](CC2CCCCC2)N(C)C(=O)CN(C)C(=O)CN(C)C1=O` [Compound 160] ([NMeL]I[Sar][Sar][NMeCha][Sar][hPhe(3-Cl-4-CF3)][NEtG][Ac5c][NMeChg][NMeD]-Piperidide; lactam N-11), the IC50 was 1 nM.
In the case of `CC[C@H](C)[C@@H]1NC(=O)[C@@H]2CCCCN2C(=O)C[C@@H](C)NC(=O)[C@H](CC(C)C)N(C)C(=O)[C@H](Cc2ccccc2)N(C)C(=O)[C@@H]2CCCN2C(=O)[C@H](CCc2ccc(C(F)(F)F)cc2)NC(=O)CN(C)C(=O)[C@H](Cc2ccc(Cl)cc2)N(C)C(=O)CN(C)C(=O)CN(C)C1=O` [Compound 632] (cyclo(I[Sar][Sar][NMePhe(4-Cl)][Sar][hPhe(4-CF3)]P[NMeF][NMeL][d(β3hA)][Pip])) it was 73 nM; in that of `CC[C@H](C)[C@@H]1NC(=O)[C@H](CC(C)C)N(C)C(=O)C[C@@H](C(=O)N2CCCCC2)N(C)C(=O)[C@H](C2CCCC2)N(C)C(=O)C2(CCCC2)NC(=O)[C@@H]2CCCN2C(=O)[C@H](CCc2ccc(C(F)(F)F)c(F)c2)NC(=O)CN(C)C(=O)[C@H](Cc2ccc(C)cc2)N(C)C(=O)[C@@H]2CCN2C(=O)[C@H](C)N(C)C1=O` [Compound 1008] ([NMeL]I[NMeA][Aze][NMePhe(4-Me)][Sar][hPhe(3-F,4-CF3)]P[Ac5c][NMeGly(cPent)][NMeD]-Piperidide; lactam N-11), 0.76 nM; in that of `CC[C@H](C)[C@@H]1NC(=O)[C@H](C)N(C)C(=O)C[C@@H](C)NC(=O)[C@H](CC(C)C)N(C)C(=O)[C@H](Cc2ccccc2)N(C)C(=O)[C@H](CC(C)C)NC(=O)[C@H](CCc2cc(Cl)ccc2F)NC(=O)CN(C)C(=O)[C@H](Cc2ccc(Cl)cc2)N(C)C(=O)CN(C)C(=O)CN(C)C1=O` [Compound 2094] (cyclo(I[Sar][Sar][NMePhe(4-Cl)][Sar][X29]L[NMeF][NMeL][d(β3hA)][NMeA])), 200 nM.
Regarding `CCO[C@@H]1C[C@H]2C(=O)NC3(CCCC3)C(=O)N(C)[C@@H](C3CCCCC3)C(=O)N(C)[C@H](C)CC(=O)N(C)[C@@H](CC(C)C)C(=O)N[C@@H]([C@@H](C)CC)C(=O)N(C)[C@@H](C)C(=O)N3CC[C@H]3C(=O)N(C)[C@@H](Cc3ccc(C(F)(F)F)cc3)C(=O)N(C)CC(=O)N[C@@H](CCc3cc(F)c(C(F)(F)F)c(F)c3)C(=O)N2C1` [Compound 486] (cyclo([Ac5c][NMeChg][NMedβ3hAla][NMeL]I[NMeA][Aze][NMePhe(4-CF3)][Sar][hPhe(3,5-F2-4-CF3)][Hyp](Et))), the IC50 was 4.8 nM.
For `CC[C@H](C)[C@@H]1NC(=O)[C@H](CC(C)C)N(C)C(=O)C[C@@H](C)N(C)C(=O)[C@H](CC(C)C)NC(=O)C(C)(C)N(C)C(=O)[C@H](CC=C(C)C)NC(=O)[C@H](Cc2cccc(I)c2)NC(=O)CN(C)C(=O)[C@H](Cc2ccc(Cl)cc2)N(C)C(=O)CN(C)C(=O)CN(C)C1=O` [Compound 1418] (cyclo(I[Sar][Sar][NMePhe(4-Cl)][Sar][Phe(3-I)][X26][NMeAib]L[NMedβ3hAla][NMeL])), the IC50 is 110 nM.
In the case of `CC[C@H](C)[C@@H]1NC(=O)[C@H](CC(C)C)N(C)C(=O)C[C@@H](C)N(C)C(=O)[C@H](C2CCCCC2)N(C)C(=O)C2(CCC2)NC(=O)[C@@H]2CC(F)(F)CN2C(=O)[C@H](CCc2cc(F)c(C(F)(F)F)c(F)c2)NC(=O)CN(C)C(=O)[C@H](Cc2ccc(C)cc2)N(CC)C(=O)[C@@H]2CCN2C(=O)[C@H](C)N(C)C1=O` [Compound 475] (cyclo([Ac4c][NMeChg][NMedβ3hAla][NMeL]I[NMeA][Aze][NEtPhe(4-Me)][Sar][hPhe(3,5-F2-4-CF3)][Pro(4,4-F2)])) it was 51 nM; in that of `CCCOC[C@H]1C(=O)N(C)CC(=O)N[C@@H](CCc2ccc(C(F)(F)F)c(Cl)c2)C(=O)N2CCC[C@H]2C(=O)NC2(CCCC2)C(=O)N(C)[C@@H](C(C)C)C(=O)N(C)[C@H](C(=O)N2CCCCC2)CC(=O)N(C)[C@@H](CC(C)C)C(=O)N[C@@H]([C@@H](C)CC)C(=O)N(C)[C@@H](C)C(=O)N2CC[C@H]2C(=O)N1C` [Compound 1646] ([NMeL]I[NMeA][Aze][NMeS](Propyl)[Sar][hPhe(3-Cl-4-CF3)]P[Ac5c][NMeV][NMeD]-Piperidide; lactam N-11), 4.6 nM.

By IC50 is commonly meant the concentration at which inhibition is half-maximal.
